From PubChem BioAssay (NCI)
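Cultured in 96-well plates, cells were exposed to test compound for 48 hours across five concentrations. At the GI50, growth is halved. TGI: concentration producing complete growth inhibition.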

Assays:
Assay in all cases: DTP human tumour cell line panel, 48 h
[1] = tested on: MDA-N
[2] = tested on: SF-295 CNS
[3] = tested on: UACC-257 melanoma
[4] = tested on: HCT-15 colon
[5] = tested on: HT29 colon
[6] = tested on: PC-3 prostate
[7] = tested on: COLO 205 colon
[8] = tested on: NCI-H226 lung
[9] = tested on: EKVX NSCLC
[10] = tested on: SNB-19 CNS
[11] = tested on: SR leukemia
[12] = tested on: K-562 leukemia
[13] = tested on: M14 melanoma
[14] = tested on: SNB-75 CNS
[15] = tested on: RXF 393 renal
[16] = tested on: SK-MEL-5 melanoma
[17] = tested on: NCI-H460 lung
[18] = tested on: NCI-H23 lung
[19] = tested on: OVCAR-4 ovarian
[20] = tested on: HCC-2998 colon
[21] = tested on: MOLT-4 leukemia
[22] = tested on: CCRF-CEM leukemia
[23] = tested on: TK-10 renal
[24] = tested on: SW-620 colon
[25] = tested on: UO-31 renal
[26] = tested on: LOX IMVI melanoma
[27] = tested on: IGROV1 ovarian
[28] = tested on: U251 CNS
[29] = tested on: NCI-H522 lung
[30] = tested on: SK-MEL-28 melanoma
[31] = tested on: OVCAR-3 ovarian
[32] = tested on: OVCAR-8 ovarian
[33] = tested on: ACHN renal
[34] = tested on: DU-145 prostate
[35] = tested on: A498 renal
[36] = tested on: RPMI-8226 leukemia
[37] = tested on: SF-268 CNS
[38] = tested on: HOP-92 NSCLC
[39] = tested on: SF-539 CNS
[40] = tested on: HS 578T breast
[41] = tested on: SK-OV-3 ovarian
[42] = tested on: HOP-62 NSCLC
[43] = tested on: SK-MEL-2 melanoma
[44] = tested on: CAKI-1 renal
[45] = tested on: MALME-3M melanoma
[46] = tested on: OVCAR-5 ovarian
[47] = tested on: 786-0 renal
[48] = tested on: NCI/ADR-RES ovarian
[49] = tested on: MDA-MB-435
[50] = tested on: MDA-MB-231 breast
[51] = tested on: UACC-62 melanoma
[52] = tested on: MCF7 breast
[53] = tested on: HL-60(TB) leukemia
[54] = tested on: KM12 colon
[55] = tested on: A549 NSCLC
[56] = tested on: T-47D breast
[57] = tested on: BT-549 breast
[58] = tested on: SN12C renal
[59] = tested on: HCT-116 colon

Structure (SMILES): O=C1CCC2(CC1CCS(=O)c1ccccc1)OCCO2 (configuration not stated)
- TGI [1]: > 100000 nM
- TGI [2]: > 100000 nM
- TGI [3]: > 100000 nM
- TGI [4]: > 100000 nM
- TGI [5]: > 100000 nM
- TGI [6]: > 100000 nM
- TGI [7]: > 100000 nM
- TGI [8]: > 100000 nM
- TGI [9]: > 100000 nM
- TGI [10]: > 100000 nM
- TGI [11]: > 100000 nM
- TGI [12]: > 100000 nM
- TGI [13]: > 100000 nM
- TGI [14]: > 100000 nM
- TGI [15]: > 100000 nM
- TGI [16]: > 100000 nM
- TGI [17]: > 100000 nM
- TGI [18]: > 100000 nM
- TGI [19]: > 100000 nM
- TGI [20]: > 100000 nM
- TGI [21]: > 100000 nM
- TGI [22]: > 100000 nM
- TGI [23]: > 100000 nM
- TGI [24]: > 100000 nM
- TGI [25]: > 100000 nM
- TGI [26]: > 100000 nM
- TGI [27]: > 100000 nM
- TGI [28]: > 100000 nM
- TGI [29]: > 100000 nM
- TGI [30]: > 100000 nM
- TGI [31]: > 100000 nM
- TGI [32]: > 100000 nM
- TGI [33]: > 100000 nM
- TGI [34]: > 100000 nM
- TGI [35]: > 100000 nM
- TGI [36]: > 100000 nM
- TGI [37]: > 100000 nM
- TGI [38]: > 100000 nM
- TGI [39]: > 100000 nM
- TGI [40]: > 100000 nM
- TGI [41]: > 100000 nM
- TGI [42]: > 100000 nM
- TGI [43]: > 100000 nM
- TGI [44]: > 100000 nM
- TGI [45]: > 100000 nM
- TGI [46]: > 100000 nM
- TGI [47]: > 100000 nM
- TGI [48]: > 100000 nM
- TGI [49]: > 100000 nM
- TGI [50]: > 100000 nM
- TGI [51]: > 100000 nM
- TGI [52]: > 100000 nM
- TGI [53]: > 100000 nM
- TGI [54]: > 100000 nM
- TGI [55]: > 100000 nM
- TGI [56]: > 100000 nM

Structure (SMILES): CCOC(=O)c1c2c(n3ccc(NC(=O)CCN4CCCCC4)cc13)C(=O)c1ncccc1C2=O
- GI50 [2]: 121 nM
- TGI [2]: 1920 nM
- GI50 [3]: 2450 nM
- TGI [3]: 7990 nM
- GI50 [4]: 1130 nM
- TGI [4]: 2860 nM
- GI50 [5]: 1300 nM
- TGI [5]: 3100 nM
- GI50 [6]: 1200 nM
- TGI [6]: 2630 nM
- GI50 [7]: 1180 nM
- TGI [7]: 2750 nM
- GI50 [8]: 4320 nM
- TGI [8]: 11300 nM
- GI50 [9]: 3030 nM
- TGI [9]: 8470 nM
- GI50 [10]: 1060 nM
- TGI [10]: 3210 nM
- GI50 [11]: < 10 nM
- TGI [11]: 1200 nM
- GI50 [12]: 117 nM
- TGI [12]: 2570 nM
- GI50 [57]: 4100 nM
- TGI [57]: 21400 nM
- GI50 [13]: 170 nM
- TGI [13]: 1760 nM
- GI50 [14]: 506 nM
- TGI [14]: 5980 nM
- GI50 [15]: 256 nM
- TGI [15]: 2400 nM
- GI50 [16]: 541 nM
- TGI [16]: 1980 nM
- GI50 [17]: < 10 nM
- TGI [17]: 443 nM
- GI50 [18]: 36.9 nM
- TGI [18]: 2030 nM
- GI50 [19]: 1420 nM
- TGI [19]: 3560 nM
- GI50 [20]: 1530 nM
- TGI [20]: 3240 nM
- GI50 [21]: 1420 nM
- TGI [21]: 4040 nM
- GI50 [22]: 1180 nM
- TGI [22]: 3680 nM
- GI50 [23]: 171 nM
- TGI [23]: 2250 nM
- GI50 [24]: 26.9 nM
- TGI [24]: 2380 nM
- GI50 [25]: 31.5 nM
- TGI [25]: 1460 nM
- GI50 [26]: 301 nM
- TGI [26]: 777 nM
- GI50 [27]: 348 nM
- TGI [27]: 2540 nM
- GI50 [28]: 1090 nM
- TGI [28]: 2470 nM
- GI50 [29]: 15.8 nM
- TGI [29]: 1720 nM
- GI50 [30]: 668 nM
- TGI [30]: 2380 nM
- GI50 [31]: 1140 nM
- TGI [31]: 2640 nM
- GI50 [32]: 1280 nM
- TGI [32]: 3710 nM
- GI50 [33]: < 10 nM
- TGI [33]: 1510 nM
- GI50 [34]: 1200 nM
- TGI [34]: 2540 nM
- GI50 [35]: 806 nM
- TGI [35]: 29000 nM
- GI50 [36]: 1410 nM
- TGI [36]: 4490 nM
- GI50 [37]: 50.3 nM
- TGI [37]: 2250 nM
- GI50 [38]: 9630 nM
- TGI [38]: 24600 nM
- GI50 [39]: 292 nM
- TGI [39]: 2000 nM
- GI50 [40]: 351 nM
- TGI [40]: 6570 nM
- GI50 [41]: 95.3 nM
- TGI [41]: 18700 nM
- GI50 [42]: 22.9 nM
- TGI [42]: 1830 nM
- GI50 [43]: 3990 nM
- TGI [43]: 23800 nM
- GI50 [44]: 27.9 nM
- TGI [44]: 4180 nM
- GI50 [45]: 1160 nM
- TGI [45]: 2730 nM
- GI50 [46]: 1380 nM
- TGI [46]: 3200 nM
- GI50 [47]: 124 nM
- TGI [47]: 2320 nM
- GI50 [48]: 1140 nM
- TGI [48]: 3660 nM
- GI50 [49]: 1160 nM
- TGI [49]: 2470 nM
- GI50 [50]: 1790 nM
- TGI [50]: 3770 nM
- GI50 [51]: 281 nM
- TGI [51]: 2650 nM
- GI50 [52]: < 10 nM
- TGI [52]: 1950 nM
- GI50 [58]: 111 nM
- TGI [58]: 2330 nM
- GI50 [53]: 1460 nM
- TGI [53]: 3460 nM
- GI50 [54]: 1220 nM
- TGI [54]: 2760 nM
- GI50 [55]: 54.7 nM
- TGI [55]: 2810 nM
- GI50 [59]: 106 nM
- TGI [59]: 2210 nM
- GI50 [56]: 8000 nM
- TGI [56]: 30200 nM

Structure (SMILES): CCOP(=O)(Nc1ccc(-c2ccc(N)cc2)cc1)OCC
- TGI [1]: > 100000 nM
- TGI [2]: > 100000 nM
- TGI [3]: > 100000 nM
- TGI [4]: > 100000 nM
- TGI [5]: > 100000 nM
- TGI [6]: > 100000 nM
- TGI [7]: > 100000 nM
- TGI [9]: > 100000 nM
- TGI [10]: > 100000 nM
- TGI [12]: > 100000 nM
- TGI [57]: > 100000 nM
- TGI [13]: > 100000 nM
- TGI [14]: > 100000 nM
- TGI [15]: 98800 nM
- TGI [16]: > 100000 nM
- TGI [17]: > 100000 nM
- TGI [18]: > 100000 nM
- TGI [19]: > 100000 nM
- TGI [20]: > 100000 nM
- TGI [21]: > 100000 nM
- TGI [23]: > 100000 nM
- TGI [25]: > 100000 nM
- TGI [27]: > 100000 nM
- TGI [28]: > 100000 nM
- TGI [29]: > 100000 nM
- TGI [30]: > 100000 nM
- TGI [31]: > 100000 nM
- TGI [32]: > 100000 nM
- TGI [33]: > 100000 nM
- TGI [34]: > 100000 nM
- TGI [35]: > 100000 nM
- TGI [36]: > 100000 nM
- TGI [37]: > 100000 nM
- TGI [38]: > 100000 nM
- TGI [40]: > 100000 nM
- TGI [41]: > 100000 nM
- TGI [42]: > 100000 nM
- TGI [43]: > 100000 nM
- TGI [44]: > 100000 nM
- TGI [45]: > 100000 nM
- TGI [46]: > 100000 nM
- TGI [47]: > 100000 nM
- TGI [48]: > 100000 nM
- TGI [49]: > 100000 nM
- TGI [50]: > 100000 nM
- TGI [51]: > 100000 nM
- TGI [52]: > 100000 nM
- TGI [54]: > 100000 nM
- TGI [55]: > 100000 nM
- TGI [59]: > 100000 nM
